Activity calls are given as the source filed them. The rule behind the calls is not given here.
Experiments:
MCF7 [1] = assay: Induction of apoptosis in human MCF7 cells assessed as early apoptotic cells at 1 uM after 48 hrs by Annexin-V-FITC/propidium iodide staining based flow cytometry (reference value: 0.09%); type: functional
Calf thymus DNA [2] = assay: Binding affinity to calf thymus DNA assessed as increase in viscosity at 15 uM by viscometric method; type: nucleic-acid assay; settings: Bos taurus
MCF7 [3] = assay: Cell cycle arrest in human MCF7 cells assessed as accumulation at G2/M-phase at 0.5 uM after 48 hrs by propidium iodide staining based flow cytometry (reference value: 33.65%); type: functional
Topoisomerase I = target: T1, Topoisomerase I (Bos taurus, UniProt Q2HPH0); assay: Inhibition of calf thymus topoisomerase 1-mediated relaxation of supercoiled pBR322 DNA measured after 30 mins by agarose gel electrophoresis method
T1 sequence (Q2HPH0 whole entry): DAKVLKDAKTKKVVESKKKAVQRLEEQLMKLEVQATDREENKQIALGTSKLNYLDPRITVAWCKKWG

MCF7 [4] = assay: Induction of apoptosis in human MCF7 cells assessed as necrotic cells at 0.5 uM after 48 hrs by Annexin-V-FITC/propidium iodide staining based flow cytometry (reference value: 3.67%); type: functional
MCF7 [5] = assay: Induction of apoptosis in human MCF7 cells assessed as necrotic cells at 1 uM after 48 hrs by Annexin-V-FITC/propidium iodide staining based flow cytometry (reference value: 3.67%); type: functional
NIH3T3 [6] = assay: Cytotoxicity against mouse NIH/3T3 cells assessed as cell death at 1 uM after 24 hrs by propidium iodide/Hoechst 33342 staining based fluorescence microscopic analysis; settings: nih3t3, 24 h
MCF7 [7] = assay: Cell cycle arrest in human MCF7 cells assessed as accumulation at subG1 phase at 0.5 uM after 48 hrs by propidium iodide staining based flow cytometry (reference value: 3.04%); type: functional
MCF7 [8] = assay: Cytotoxicity against human MCF7 cells assessed as cell death at 1 uM after 24 hrs by propidium iodide/Hoechst 33342 staining based fluorescence microscopic analysis; type: functional
HeLa = assay: Cytotoxicity against human HeLa cells after 48 hrs by MTT assay; type: functional, cell-based
MCF7 [9] = assay: Induction of apoptosis in human MCF7 cells assessed as viable cells at 0.5 uM after 48 hrs by Annexin-V-FITC/propidium iodide staining based flow cytometry (reference value: 96.18%); type: functional; settings: MCF7, 48 h, read-out: Activity
MCF7 [10] = assay: Cell cycle arrest in human MCF7 cells assessed as accumulation at G1 phase at 0.5 uM after 48 hrs by propidium iodide staining based flow cytometry (reference value: 45.98%); type: functional
Calf thymus DNA [11] = assay: Binding affinity to calf thymus DNA at 50 uM by UV-Vis absorption spectrophotometric method; type: nucleic-acid assay; settings: Bos taurus
MCF7 [12] = assay: Cell cycle arrest in human MCF7 cells assessed as accumulation at S-phase at 0.5 uM after 48 hrs by propidium iodide staining based flow cytometry (reference value: 15.64%); type: functional
MCF7 [13] = assay: Cytotoxicity against human MCF7 cells after 48 hrs by MTT assay; type: functional, cell-based; settings: MCF7, 48 h
Calf thymus DNA [14] = assay: Binding affinity to calf thymus DNA assessed as maximum absorption peak at 50 uM by UV-Vis absorption spectrophotometric method; type: nucleic-acid assay; settings: Bos taurus
MCF7 [15] = assay: Induction of apoptosis in human MCF7 cells assessed as early apoptotic cells at 0.5 uM after 48 hrs by Annexin-V-FITC/propidium iodide staining based flow cytometry (reference value: 0.09%); type: functional
MCF7 [16] = assay: Induction of apoptosis in human MCF7 cells assessed as late apoptotic cells at 0.5 uM after 48 hrs by Annexin-V-FITC/propidium iodide staining based flow cytometry (reference value: 0.06%); type: functional
MCF7 [17] = assay: Cell cycle arrest in human MCF7 cells assessed as accumulation at G1 phase at 1 uM after 48 hrs by propidium iodide staining based flow cytometry (reference value: 45.98%); type: functional
MCF7 [18] = assay: Cell cycle arrest in human MCF7 cells assessed as accumulation at S-phase at 1 uM after 48 hrs by propidium iodide staining based flow cytometry (reference value: 15.64%); type: functional
MCF7 [19] = assay: Cell cycle arrest in human MCF7 cells assessed as accumulation at subG1 phase at 1 uM after 48 hrs by propidium iodide staining based flow cytometry (reference value: 3.04%); type: functional
Calf thymus DNA [20] = assay: Binding affinity to calf thymus DNA assessed as hypochromic shift at 50 uM by UV-Vis absorption spectrophotometric method; type: nucleic-acid assay; settings: Bos taurus
A549 = assay: Cytotoxicity against human A549 cells after 48 hrs by MTT assay; type: functional, cell-based; settings: A549, 48 h
Calf thymus DNA [21] = assay: Binding affinity to calf thymus DNA assessed as fluorescence quenching at 10 uM by spectrofluorimetric method; type: nucleic-acid assay; settings: Bos taurus
Calf thymus DNA [22] = assay: Binding affinity to calf thymus DNA assessed as DNA winding at 1:1 to 1:2 ratio of DNA to compound by circular dichroism analysis; type: nucleic-acid assay; settings: Bos taurus
MCF7 [23] = assay: Induction of apoptosis in human MCF7 cells assessed as increase in number of wrinkled cells at 1 uM after 48 hrs by Hoechst 33342 staining based confocal microscopic analysis; type: functional, cell-based
MCF7 [24] = assay: Cell cycle arrest in human MCF7 cells assessed as accumulation at G2/M-phase at 1 uM after 48 hrs by propidium iodide staining based flow cytometry (reference value: 33.65%); type: functional
MCF7 [25] = assay: Induction of apoptosis in human MCF7 cells assessed as DNA fragmentation at 1 uM after 48 hrs by Hoechst 33342 staining based confocal microscopic analysis; type: functional, cell-based
MCF7 [26] = assay: Induction of apoptosis in human MCF7 cells assessed as viable cells at 1 uM after 48 hrs by Annexin-V-FITC/propidium iodide staining based flow cytometry (reference value: 96.18%); type: functional; settings: MCF7, 48 h, read-out: Activity
B16 = assay: Cytotoxicity against mouse B16 cells after 48 hrs by MTT assay; type: functional, cell-based; settings: B16, 48 h
MCF7 [27] = assay: Induction of apoptosis in human MCF7 cells assessed as late apoptotic cells at 1 uM after 48 hrs by Annexin-V-FITC/propidium iodide staining based flow cytometry (reference value: 0.06%); type: functional
NIH3T3 [28] = assay: Cytotoxicity against mouse NIH/3T3 cells after 48 hrs by MTT assay; type: cell-based; settings: NIH3T3, 48 h

Row | SMILES | Activity (MCF7 [1]) [%] | Activity (Calf thymus DNA [2]) | Activity (MCF7 [3]) [%] | IC50 (Topoisomerase I) [nM] | Activity (MCF7 [4]) [%] | Activity (MCF7 [5]) [%] | Activity (NIH3T3 [6]) | Activity (MCF7 [7]) [%] | Activity (MCF7 [8]) | IC50 (HeLa) [nM] | viability at 0.5 µM (MCF7 [9]) [%] | Activity (MCF7 [10]) [%] | K (Calf thymus DNA [11]) | Activity (MCF7 [12]) [%] | IC50 (MCF7 [13]) [nM] | Activity (Calf thymus DNA [14]) [nm] | Activity (MCF7 [15]) [%] | Activity (MCF7 [16]) [%] | Activity (MCF7 [17]) [%] | Activity (MCF7 [18]) [%] | further results
1 | COc1ccc(-c2nc(CNC(=O)/C=C/c3ccc(Cl)cc3)cc3c2[nH]c2ccccc23)cc1 | 6.69 | Active | 33.1 | 14 | 1.29 | 6.04 | Non-Toxic | 5.4 | Active | 21.6 | 91.2 | 42.32 | 3 ×10⁵ /M | 17.6 | 14.1 | 287 to 369 | 6.65 | 0.81 | 42.38 | 16.72 | Activity (MCF7 [19]): 2.97%; Activity (Calf thymus DNA [20]): 6 nm; IC50 (A549): 18.9 nM; Activity (Calf thymus DNA [21]): Active; Activity (Calf thymus DNA [22]): Active; Activity (MCF7 [23]): Active; Activity (MCF7 [24]): 37.42%; Activity (MCF7 [25]): Active; viability at 1 µM (MCF7 [26]): 84.8%; IC50 (B16): 16.6 nM; Activity (MCF7 [27]): 2.43%; IC50 (NIH3T3 [28]): 38.3 nM
2 | COc1ccc(-c2nc(CNC(=O)/C=C/c3cccc(O)c3)cc3c2[nH]c2ccccc23)cc1 | 9.46 | Active | 32.46 | 14 | 6.45 | 9.55 | Non-Toxic | 4.61 | Active | 22.3 | 81.3 | 46.11 | 1 ×10³ /M | 16.81 | 13.8 | 287 to 369 | 9.75 | 2.5 | 40.12 | 16.29 | Activity (MCF7 [19]): 4.32%; Activity (Calf thymus DNA [20]): inactive; IC50 (A549): 18.9 nM; Activity (Calf thymus DNA [21]): Active; Activity (Calf thymus DNA [22]): Active; Activity (MCF7 [23]): Active; Activity (MCF7 [24]): 39.25%; Activity (MCF7 [25]): Active; viability at 1 µM (MCF7 [26]): 77.3%; IC50 (B16): 16.3 nM; Activity (MCF7 [27]): 3.69%; IC50 (NIH3T3 [28]): 37.2 nM

Source: ChEMBL document CHEMBL4152353, “Synthesis of DNA interactive C3-trans-cinnamide linked β-carboline conjugates as potential cytotoxic and DNA topoisomerase I inhibitors” (Bioorg Med Chem, 2018)
